The target in assay [1] is T1, Neuropeptide Y receptor type 4 (Homo sapiens, UniProt P50391). Description: Displacement of [3H]UR-KK200 from human Y4 receptor expressed in CHO cells co-expressing Gqi5-mtAEQ measured after 90 mins by scintillation counting analysis. The format is cell-based. In general terms: Displacement assays read how much labelled ligand stays bound in the presence of the test substance.

The target in assay [2] is T2, Neuropeptide Y receptor type 1 (Homo sapiens, UniProt P25929).
T2 sequence (P25929 whole entry): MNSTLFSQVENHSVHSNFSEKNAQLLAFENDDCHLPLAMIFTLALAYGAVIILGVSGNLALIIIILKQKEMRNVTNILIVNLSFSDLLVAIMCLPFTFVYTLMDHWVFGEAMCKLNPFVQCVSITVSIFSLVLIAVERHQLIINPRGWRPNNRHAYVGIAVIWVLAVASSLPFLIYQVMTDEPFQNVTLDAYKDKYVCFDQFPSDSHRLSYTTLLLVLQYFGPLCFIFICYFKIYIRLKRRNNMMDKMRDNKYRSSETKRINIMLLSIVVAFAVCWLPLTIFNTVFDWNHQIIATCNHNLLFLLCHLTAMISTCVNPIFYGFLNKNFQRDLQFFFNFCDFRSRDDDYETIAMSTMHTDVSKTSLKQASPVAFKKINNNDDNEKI
Description: Displacement of [3H]UR-MK299 from Y1 receptor in human SK-N-MC cells. Format: cell-based.

Assay [3] deals with T3, Neuropeptide Y receptor type 2 (Homo sapiens, UniProt P49146).
T3 sequence (P49146 whole entry): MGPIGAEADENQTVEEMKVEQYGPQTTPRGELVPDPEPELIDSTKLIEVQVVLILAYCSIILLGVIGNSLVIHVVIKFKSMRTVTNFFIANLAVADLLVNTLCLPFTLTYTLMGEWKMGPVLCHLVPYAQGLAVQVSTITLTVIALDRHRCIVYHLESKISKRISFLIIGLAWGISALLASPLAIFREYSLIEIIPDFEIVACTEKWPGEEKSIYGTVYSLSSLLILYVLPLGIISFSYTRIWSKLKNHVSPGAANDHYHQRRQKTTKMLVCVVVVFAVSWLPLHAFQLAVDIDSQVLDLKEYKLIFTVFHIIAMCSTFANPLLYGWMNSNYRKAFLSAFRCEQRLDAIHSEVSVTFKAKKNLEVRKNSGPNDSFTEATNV
Nature of the assay: Displacement of [3H]propionyl-pNPY from human Y2 receptor expressed in CHO cells measured after 2 hrs by microbeta liquid scintillation counting analysis. Format: cell-based.

Assay [4] addresses T4, Neuropeptide Y receptor type 5 (Homo sapiens, UniProt Q15761).
T4 sequence (Q15761 whole entry): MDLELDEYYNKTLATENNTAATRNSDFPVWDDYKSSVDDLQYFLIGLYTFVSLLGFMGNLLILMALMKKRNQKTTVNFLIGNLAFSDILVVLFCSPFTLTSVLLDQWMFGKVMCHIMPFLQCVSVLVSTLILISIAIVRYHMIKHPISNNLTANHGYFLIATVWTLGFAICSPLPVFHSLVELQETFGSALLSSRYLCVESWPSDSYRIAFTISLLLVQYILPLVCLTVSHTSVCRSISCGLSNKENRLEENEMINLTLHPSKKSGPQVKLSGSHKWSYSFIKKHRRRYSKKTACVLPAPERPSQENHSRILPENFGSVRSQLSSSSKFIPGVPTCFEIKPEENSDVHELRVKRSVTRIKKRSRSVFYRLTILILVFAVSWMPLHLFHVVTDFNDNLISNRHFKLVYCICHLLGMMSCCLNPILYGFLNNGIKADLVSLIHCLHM
Nature of the assay: Displacement of [3H]propionyl-pNPY from human Y5 receptor expressed in human HEC1B cells. Format: cell-based.

The species entered for assay [5] is Homo sapiens. Nature of the assay: Selectivity ratio of Ki for displacement of [3H]UR-MK299 from Y1 receptor in human SK-N-MC cells to Ki for displacement of [3H]UR-KK200 from human Y4 receptor expressed in CHO cells co-expressing Gqi5-mtAEQ. Format: cell-based.
For assay [6], the species on record is Homo sapiens. Description: Selectivity ratio of Ki for displacement of [3H]propionyl-pNPY from human Y2 receptor expressed in CHO cells to Ki for displacement of [3H]UR-KK200 from human Y4 receptor expressed in CHO cells co-expressing Gqi5-mtAEQ. The format is cell-based.
The species named for assay [7] is Homo sapiens. Nature of the assay: Selectivity ratio of Ki for displacement of [3H]propionyl-pNPY from human Y5 receptor expressed in human HEC1B cells to Ki for displacement of [3H]UR-KK200 from human Y4 receptor expressed in CHO cells co-expressing Gqi5-mtAEQ. Format: cell-based.
For assay [8], the target named is T1, Neuropeptide Y receptor type 4. Description: Agonist activity at human Y4R expressed in HEK293T cells co-expressing ARRB1 assessed as induction of beta-arrestin1 recruitment measured for 40 mins by D-luciferin based luminescence assay. Format: cell-based, HEK-293T.
Assay [9] shares this target. Nature of the assay: Agonist activity at human Y4R expressed in HEK293T cells co-expressing ARRB2 assessed as induction of beta-arrestin2 recruitment measured for 40 mins by D-luciferin based luminescence assay. The format is cell-based, HEK-293T.
Assay [10] has the same target. Nature of the assay: Agonist activity at human Y4 receptor expressed in CHO cells co-expressing Gqi5-mtAEQ assessed as intracellular calcium mobilization measured for 43 secs in presence of coelenterazine by aequorin-reporter gene based luminescence assay. Format: functional, cell-based. In general terms: Calcium flux is commonly read through the fluorescence of an indicator in the cells.

Bridge positions count the residues as written; N and C are the ends. Square brackets hold non-standard residues; d marks the D form. Peptide text beside a SMILES is read from it. I, II: the chains in the order shown. ξ: configuration not given here. ξDap = NCC(N)C(=O)O

T1 sequence (P50391 whole entry): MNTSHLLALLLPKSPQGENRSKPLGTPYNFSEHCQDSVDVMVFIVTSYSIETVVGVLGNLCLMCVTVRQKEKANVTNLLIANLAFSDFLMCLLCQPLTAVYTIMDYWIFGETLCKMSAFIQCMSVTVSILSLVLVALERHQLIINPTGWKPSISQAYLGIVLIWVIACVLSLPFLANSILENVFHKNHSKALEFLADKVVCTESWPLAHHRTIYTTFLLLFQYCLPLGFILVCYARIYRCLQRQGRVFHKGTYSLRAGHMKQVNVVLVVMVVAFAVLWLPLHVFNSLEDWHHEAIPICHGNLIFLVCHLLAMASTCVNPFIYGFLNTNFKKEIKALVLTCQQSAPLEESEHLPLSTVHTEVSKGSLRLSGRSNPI

For the molecule `CC(C)C[C@H](NC(=O)[C@H](CCCNC(=N)N)NC(=O)[C@H](Cc1ccc(O)cc1)NC(=O)[C@@H](N)CCCNC(N)=O)C(=O)N[C@@H](CCCNC(=N)N)C(=O)N[C@@H](Cc1ccc(O)cc1)C(N)=O`, the Ki in assay [1] (read-out: Ki) is 0.0048 µM; in assay [1] (read-out: pKi (converted)), 0.00447 µM; in assay [2] (read-out: Ki), > 3 µM; in assay [2] (read-out: pKi (converted)), > 3.16 µM; in assay [3] (read-out: Ki), > 3 µM; in assay [3] (read-out: pKi (converted)) it was > 3.16 µM. The Ki in assay [4] (read-out: Ki) and in [4] (read-out: pKi (converted)) was > 10 µM throughout. Moreover, the Ratio Ki was > 630 in the assay filed under Homo sapiens [5], > 630 in the assay listed under Homo sapiens [6] and > 2100 in the assay filed under Homo sapiens [7]. Also, the results for the EC50 in assay [8] (read-out: EC50) and in assay [9] (read-out: EC50) were 0.1 µM and 0.15 µM, respectively.

Regarding Ac-RYRPRY-NH2, the Ki in [1] (read-out: Ki) turned out to be 1.8 µM. Further, the EC50 in assay [8] (read-out: EC50) is > 30 µM; in [8] (read-out: pEC50 (converted)), > 31.6 µM; in [9] (read-out: EC50), > 30 µM; in [9] (read-out: pEC50 (converted)), > 31.6 µM; in assay [10] (read-out: EC50), > 30 µM; in assay [10] (read-out: pEC50 (converted)), > 31.6 µM.

For `CC(C)C[C@H](NC(=O)[C@@H](N)CCCNC(=N)N)C(=O)N[C@@H](CCCNC(=N)N)C(=O)N[C@H](Cc1ccc(O)cc1)C(N)=O`, the Ki in assay [1] (read-out: Ki) is 1.5 µM. The EC50 was > 30 µM in [8] (read-out: EC50), > 31.6 µM in assay [8] (read-out: pEC50 (converted)), > 30 µM in assay [9] (read-out: EC50) and > 31.6 µM in [9] (read-out: pEC50 (converted)).

In the case of `N=C(N)NCCC[C@H](NC(=O)[C@H](Cc1c[nH]c2ccccc12)NC(=O)[C@@H](N)CCCNC(=N)N)C(=O)N[C@@H](Cc1ccc(O)cc1)C(N)=O` (H-RWRY-NH2), the Ki in assay [1] (read-out: Ki) was 0.35 µM. For the same molecule, the EC50 in assay [8] (read-out: EC50) was > 30 µM; in assay [8] (read-out: pEC50 (converted)), > 31.6 µM; in assay [9] (read-out: EC50) it was > 30 µM; in assay [9] (read-out: pEC50 (converted)) it was > 31.6 µM; in assay [10] (read-out: EC50) it was > 30 µM; in assay [10] (read-out: pEC50 (converted)), > 31.6 µM.

Regarding `CN[C@@H](CCCNC(=N)N)C(=O)N[C@@H](CC(C)C)C(=O)N[C@@H](CCCNC(=N)N)C(=O)N[C@@H](Cc1ccc(O)cc1)C(N)=O`, the Ki in assay [1] (read-out: Ki) is 0.0039 µM; in assay [2] (read-out: Ki) it was > 3 µM; in assay [2] (read-out: pKi (converted)), > 3.16 µM; in assay [3] (cho, read-out: Ki), > 1 µM; in assay [3] (read-out: pKi (converted)) it was > 1 µM; in assay [4] (read-out: Ki), > 10 µM. Moreover, the Ki in [4] (read-out: pKi (converted)) was > 10 µM. In addition, the Ratio Ki in the assay listed under Homo sapiens [5] is > 770; in the assay filed under Homo sapiens [6] it was > 260; in the assay listed under Homo sapiens [7], > 2600. The figures for the EC50 in assay [8] (read-out: EC50) and in [9] (read-out: EC50) were 2.5 µM and 1.2 µM, respectively.

Take `CC[C@H](C)[C@H](N)C(=O)N[C@H]1CCC(=O)NCC(C(=O)N[C@@H](Cc2ccc(O)cc2)C(=O)N[C@@H](CCCNC(=N)N)C(=O)N[C@@H](CC(C)C)C(=O)N[C@@H](CCCNC(=N)N)C(=O)N[C@@H](Cc2ccc(O)cc2)C(N)=O)NC(=O)[C@@H]2CCCN2C(=O)[C@@H](NC(=O)[C@@H](N)[C@@H](C)CC)CCC(=O)NCC(C(=O)N[C@@H](Cc2ccc(O)cc2)C(=O)N[C@@H](CCCNC(=N)N)C(=O)N[C@@H](CC(C)C)C(=O)N[C@@H](CCCNC(=N)N)C(=O)N[C@@H](Cc2ccc(O)cc2)C(N)=O)NC(=O)[C@@H]2CCCN2C1=O` (some centres undefined) (I: H-IEP[ξDap]YRLRY-NH2 / II: H-IEP[ξDap]YRLRY-NH2; amide I:2-II:4, I:4-II:2): the Ki in assay [1] (read-out: Ki) was 0.00036 µM.

As for H-RYRGRY-NH2, the Ki in assay [1] (read-out: Ki) is 0.19 µM. Further, the EC50 is > 30 µM in assay [8] (read-out: EC50); > 31.6 µM in [8] (read-out: pEC50 (converted)); > 30 µM in assay [9] (read-out: EC50); > 31.6 µM in assay [9] (read-out: pEC50 (converted)); > 30 µM in [10] (read-out: EC50); > 31.6 µM in assay [10] (read-out: pEC50 (converted)).

With `CC(=O)N[C@@H](CCCNC(=N)N)C(=O)N[C@@H](Cc1ccc(O)cc1)C(=O)N[C@@H](CCCNC(N)=O)C(=O)N[C@@H](CC(C)C)C(=O)N[C@@H](CCCNC(=N)N)C(=O)N[C@@H](Cc1ccc(O)cc1)C(N)=O`, in assay [1] (read-out: Ki), the Ki was 0.12 µM. Also, the EC50 in [8] (read-out: EC50) is > 30 µM; in [8] (read-out: pEC50 (converted)) it was > 31.6 µM; in assay [9] (read-out: EC50) it was > 30 µM; in [9] (read-out: pEC50 (converted)), > 31.6 µM; in assay [10] (read-out: EC50), > 30 µM; in assay [10] (read-out: pEC50 (converted)) it was > 31.6 µM.
